Test results reported in ChEMBL document CHEMBL5042509, “Benzophenone Glucosides and B-Type Proanthocyanidin Dimers from Zambian Cassia abbreviata and Their Trypanocidal Activities” (J Nat Prod, 2022).
In brackets after ≈: the same amount, converted by molar mass.

Assays:
[1] = system: Trypanosoma brucei rhodesiense; test: Trypanocidal activity against Trypanosoma brucei rhodesiense assessed as parasite growth inhibition at 50 ug/ml incubated for 3 days by Celltiter-Glo luminescence assay; format: functional; set-up: scale not given: the % may be the effect or the level left; details: dose 50 µg/ml; time 3 day
[2] = system: Trypanosoma brucei rhodesiense; test: Trypanocidal activity against Trypanosoma brucei rhodesiense IL1501 assessed as parasite growth inhibition at 50 ug/ml incubated for 3 days by Celltiter-Glo luminescence assay; format: functional; set-up: scale not given: the % may be the effect or the level left; details: dose 50 µg/ml; time 3 day
[3] = system: Trypanosoma brucei brucei; test: Trypanocidal activity against Trypanosoma brucei brucei GUTat3.1 assessed as parasite growth inhibition incubated for 3 days by Celltiter-Glo luminescence assay; format: functional, organism-based; details: GUTat3.1, 72 h
Trypanosoma evansi [4] = test: Trypanocidal activity against Trypanosoma evansi assessed as parasite growth inhibition at 50 ug/ml incubated for 3 days by Celltiter-Glo luminescence assay; format: functional; set-up: scale not given: the % may be the effect or the level left; details: dose 50 µg/ml; time 3 day
[5] = system: Trypanosoma brucei brucei; test: Trypanocidal activity against Trypanosoma brucei brucei GUTat3.1 assessed as parasite growth inhibition at 50 ug/ml incubated for 3 days by Celltiter-Glo luminescence assay; format: functional; set-up: scale not given: the % may be the effect or the level left; details: dose 50 µg/ml; time 3 day
[6] = system: Trypanosoma brucei gambiense; test: Trypanocidal activity against Trypanosoma brucei gambiense IL1922 assessed as parasite growth inhibition at 50 ug/ml incubated for 3 days by Celltiter-Glo luminescence assay; format: functional; set-up: scale not given: the % may be the effect or the level left; details: dose 50 µg/ml; time 3 day
[7] = system: Trypanosoma brucei gambiense; test: Trypanocidal activity against Trypanosoma brucei gambiense IL1922 assessed as parasite growth inhibition incubated for 3 days by Celltiter-Glo luminescence assay; format: functional, organism-based; details: IL1922, 72 h
[8] = system: Trypanosoma brucei rhodesiense; test: Trypanocidal activity against Trypanosoma brucei rhodesiense IL1501 assessed as parasite growth inhibition incubated for 3 days by Celltiter-Glo luminescence assay; format: functional, organism-based; details: IL1501, 72 h
[9] = system: Trypanosoma brucei rhodesiense; test: Trypanocidal activity against Trypanosoma brucei rhodesiense assessed as parasite growth inhibition incubated for 3 days by Celltiter-Glo luminescence assay; format: functional, organism-based; details: 72 h
Trypanosoma evansi [10] = test: Trypanocidal activity against Trypanosoma evansi assessed as parasite growth inhibition incubated for 3 days by Celltiter-Glo luminescence assay; format: functional, organism-based; details: 72 h
Trypanosoma congolense [11] = test: Trypanocidal activity against Trypanosoma congolense IL3000 assessed as parasite growth inhibition incubated for 3 days by Celltiter-Glo luminescence assay; details: IL3000, 72 h
Trypanosoma congolense [12] = test: Trypanocidal activity against Trypanosoma congolense IL3000 assessed as parasite growth inhibition at 50 ug/ml incubated for 3 days by Celltiter-Glo luminescence assay; set-up: scale not given: the % may be the effect or the level left; details: dose 50 µg/ml; time 3 day

Oc1ccc([C@H]2Oc3cc(O)cc(O)c3C[C@@H]2O)cc1
Activity [1]: 99.71%
Activity [2]: 96.07%
IC50 [3]: 38.6 µg/mL (≈ 141 µM)
Activity (Trypanosoma evansi [4]): 99.7%
Activity [5]: 98.54%
Activity [6]: 90.28%
IC50 [7]: 46.4 µg/mL (≈ 169 µM)
IC50 [8]: 45.7 µg/mL (≈ 167 µM)
IC50 [9]: 4.03 µg/mL (≈ 14.7 µM)
IC50 (Trypanosoma evansi [10]): 14.4 µg/mL (≈ 52.6 µM)
IC50 (Trypanosoma congolense [11]): 28.3 µg/mL (≈ 103 µM)
Activity (Trypanosoma congolense [12]): 99.57%
